Measurements taken from PubChem BioAssay AID248 (DTP/NCI, 2004).
Values joined by “and” are separate entries in the source; they are usually repeats but may differ in a detail not shown here. Identical values can stand only once. Inconclusive results and toxic doses are left out. Cut-off read from the data, not from the text of the source: active = T/C of 150% or more; inactive = T/C below 125%.

System: L1210 leukemia ip in BDF1 mice, survival T/C
Assay: NCI In Vivo Anticancer Drug Screen. Data for tumor model L1210 Leukemia (intraperitoneal) in B6D2F1 (BDF1) mice
Settings: endpoint: mean survival time, higher = longer survival
In short: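 In this screen, tumor-bearing mice given compound are compared to those given vehicle, and their survival values are reported as a treated-to-control quotient.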

[1] = dose: 100.0 mg/kg/injection, schedule: Q04DX003 (ip), vehicle: saline
[2] = dose: 200.0 mg/kg/injection, schedule: Q04DX003 (ip), vehicle: saline
[3] = dose: 400.0 mg/kg/injection, schedule: Q04DX003 (ip), vehicle: saline
[4] = dose: 100.0 mg/kg/injection, schedule: Q01DX001 (ip), vehicle: saline
[5] = dose: 200.0 mg/kg/injection, schedule: Q01DX001 (ip), vehicle: saline
[6] = dose: 400.0 mg/kg/injection, schedule: Q01DX001 (ip), vehicle: saline
[7] = dose: 100.0 mg/kg/injection, schedule: Q04DX003 (ip), vehicle: Klucel (hydroxypropylcellulose) (HPC)
[8] = dose: 200.0 mg/kg/injection, schedule: Q04DX003 (ip), vehicle: Klucel (hydroxypropylcellulose) (HPC)
[9] = dose: 400.0 mg/kg/injection, schedule: Q04DX003 (ip), vehicle: Klucel (hydroxypropylcellulose) (HPC)
[10] = dose: 100.0 mg/kg/injection, schedule: Q01DX009 (ip), vehicle: saline
[11] = dose: 200.0 mg/kg/injection, schedule: Q01DX009 (ip), vehicle: saline
[12] = dose: 400.0 mg/kg/injection, schedule: Q01DX009 (ip), vehicle: saline
[13] = dose: 200.0 mg/kg/injection, schedule: Q01DX001 (ip), vehicle: carboxymethylcellulose (CMC)
[14] = dose: 400.0 mg/kg/injection, schedule: Q01DX001 (ip), vehicle: carboxymethylcellulose (CMC)

Measured: T/C

CC(C)(NC(=O)C(F)(F)F)C(=O)O
inactive: [1] 100 % of control | [2] 87 % of control | [3] 95 % of control

CCCCCCCCCCCc1n(Cc2ccccc2)cc[n+]1C
inactive: dose: 0.5 mg/kg/injection, schedule: Q01DX001 (ip), vehicle: saline 101 % of control | dose: 0.5 mg/kg/injection, schedule: Q01DX009 (ip), vehicle: acetone 111 % of control | dose: 1.0 mg/kg/injection, schedule: Q01DX001 (ip), vehicle: saline 95 % of control | dose: 1.0 mg/kg/injection, schedule: Q01DX009 (ip), vehicle: acetone 118 % of control | dose: 2.0 mg/kg/injection, schedule: Q01DX001 (ip), vehicle: saline 101 % of control | dose: 2.0 mg/kg/injection, schedule: Q04DX003 (ip), vehicle: saline 95 % of control | dose: 8.0 mg/kg/injection, schedule: Q01DX001 (ip), vehicle: saline 103 % of control

C=C1C(=O)O[C@@H]2[C@H]3O[C@]3(C)CCC=C(C)CC[C@@H]12
inactive: dose: 6.25 mg/kg/injection, schedule: Q01DX009 (ip), vehicle: alcohol 97 % of control | dose: 12.5 mg/kg/injection, schedule: Q01DX009 (ip), vehicle: alcohol 103 % of control | dose: 25.0 mg/kg/injection, schedule: Q01DX009 (ip), vehicle: alcohol 95 % of control

CSc1ncc(Br)c(N2CC2)n1
inactive: dose: 59.0 mg/kg/injection, schedule: Q01DX Z (ip), vehicle: methylcellulose (MC) 89 % of control | dose: 88.0 mg/kg/injection, schedule: Q01DX Z (ip), vehicle: methylcellulose (MC) 86 % of control

CSc1n[nH]c(=O)[nH]c1=S
inactive: [4] 96 % of control | [5] 101 % of control | [6] 95 % of control

O=C(O)C1CCC2CCCCC2[N-]1.O=C(O)C1CCC2CCCCC2[N-]1.[Zn+2] (centres undefined)
inactive: dose: 25.0 mg/kg/injection, schedule: Q01DX009 (ip), vehicle: Klucel (hydroxypropylcellulose) (HPC) 92 % of control | dose: 50.0 mg/kg/injection, schedule: Q01DX009 (ip), vehicle: Klucel (hydroxypropylcellulose) (HPC) 87 % of control | dose: 100.0 mg/kg/injection, schedule: Q01DX009 (ip), vehicle: Klucel (hydroxypropylcellulose) (HPC) 86 % of control | [7] 94 % of control | [8] 89 % of control | [9] 89 % of control

N#CC1(C#N)C2C=CC(C3C(Cl)C=CC32)C1(C#N)C#N (centres undefined)
inactive: dose: 12.5 mg/kg/injection, schedule: Q01DX009 (ip), vehicle: saline with Tween-80 87 % of control | dose: 12.5 mg/kg/injection, schedule: Q04DX003 (ip), vehicle: saline with Tween-80 96 % of control | dose: 25.0 mg/kg/injection, schedule: Q01DX009 (ip), vehicle: saline with Tween-80 89 % of control | dose: 25.0 mg/kg/injection, schedule: Q04DX003 (ip), vehicle: saline with Tween-80 94 % of control | dose: 50.0 mg/kg/injection, schedule: Q04DX003 (ip), vehicle: saline with Tween-80 97 % of control

COCCNCC1OC(OC)C2OC(C)(C)OC12 (centres undefined)
inactive: dose: 100.0 mg/kg/injection, schedule: Q01DX005 (ip), vehicle: saline 104 % of control | dose: 200.0 mg/kg/injection, schedule: Q01DX005 (ip), vehicle: saline 102 % of control

CCC(CC)c1cccc2ccccc12
inactive: [4] 98 % of control | [5] 96 % of control | [6] 108 % of control

NCCNCCNCCN
inactive: dose: 50.0 mg/kg/injection, schedule: Q01DX001 (ip), vehicle: saline 95 % of control | [4] 95 % of control | [10] 93 % of control | [1] 102 % of control | [5] 98 % of control | [11] 93 % of control | [2] 105 % of control | [6] 101 % of control | [12] 109 % of control | [3] 94 % of control

Cc1nc2c(C(N)=O)nc(C)n2nc1C
inactive: dose: 50.0 mg/kg/injection, schedule: Q04DX002 (ip), vehicle: saline with Tween-80 93 % of control | dose: 100.0 mg/kg/injection, schedule: Q01DX001 (ip), vehicle: saline with Tween-80 103 % of control | dose: 100.0 mg/kg/injection, schedule: Q04DX002 (ip), vehicle: saline with Tween-80 105 % of control and 107 % of control | dose: 200.0 mg/kg/injection, schedule: Q01DX001 (ip), vehicle: saline with Tween-80 106 % of control | dose: 200.0 mg/kg/injection, schedule: Q04DX002 (ip), vehicle: saline with Tween-80 121 % of control | dose: 400.0 mg/kg/injection, schedule: Q01DX001 (ip), vehicle: saline with Tween-80 111 % of control | dose: 400.0 mg/kg/injection, schedule: Q04DX002 (ip), vehicle: saline with Tween-80 99 % of control | dose: 600.0 mg/kg/injection, schedule: Q01DX001 (ip), vehicle: saline with Tween-80 110 % of control

O=C(O)C1CCC(=O)N1C(=O)OCc1ccccc1 (centres undefined)
inactive: dose: 100.0 mg/kg/injection, schedule: Q04DX003 (ip), vehicle: saline with Tween-80 100 % of control | dose: 200.0 mg/kg/injection, schedule: Q04DX003 (ip), vehicle: saline with Tween-80 97 % of control | dose: 400.0 mg/kg/injection, schedule: Q04DX003 (ip), vehicle: saline with Tween-80 95 % of control

OCC(O)C(O)C(O)CO (centres undefined)
inactive: dose: 100.0 mg/kg/injection, schedule: Q04DX002 (ip), vehicle: saline 107 % of control | dose: 200.0 mg/kg/injection, schedule: Q04DX002 (ip), vehicle: saline 104 % of control | dose: 400.0 mg/kg/injection, schedule: Q04DX002 (ip), vehicle: saline 96 % of control

O=C(O)C(C(=O)c1cccc([N+](=O)[O-])c1)C(=O)c1cccc([N+](=O)[O-])c1
inactive: [13] 100 % of control | [14] 94 % of control

CN(C)CCOCCOC(=O)N1c2ccccc2Sc2ccccc21
inactive: dose: 6.25 mg/kg/injection, schedule: Q01DX009 (ip), vehicle: saline 106 % of control | dose: 6.25 mg/kg/injection, schedule: Q04DX003 (ip), vehicle: saline 102 % of control | dose: 12.5 mg/kg/injection, schedule: Q01DX009 (ip), vehicle: saline 95 % of control | dose: 12.5 mg/kg/injection, schedule: Q04DX003 (ip), vehicle: saline 105 % of control | dose: 25.0 mg/kg/injection, schedule: Q01DX009 (ip), vehicle: saline 97 % of control | dose: 25.0 mg/kg/injection, schedule: Q04DX003 (ip), vehicle: saline 97 % of control and 98 % of control | dose: 50.0 mg/kg/injection, schedule: Q01DX009 (ip), vehicle: saline 88 % of control | dose: 50.0 mg/kg/injection, schedule: Q04DX003 (ip), vehicle: saline 107 % of control and 109 % of control | [10] 103 % of control | [1] 102 % of control and 109 % of control

CC1=C(C)C2(Cl)C(Cl)=C(Cl)C1(Cl)C2(Cl)Cl
inactive: dose: 50.0 mg/kg/injection, schedule: Q04DX003 (ip), vehicle: Klucel (hydroxypropylcellulose) (HPC) 96 % of control | [7] 91 % of control | [8] 92 % of control | [9] 96 % of control

CC(=O)CO
inactive: dose: 50.0 mg/kg/injection, schedule: Q01DX001 (ip), vehicle: carboxymethylcellulose (CMC) 98 % of control | dose: 100.0 mg/kg/injection, schedule: Q01DX001 (ip), vehicle: carboxymethylcellulose (CMC) 101 % of control | [10] 90 % of control | [1] 93 % of control | [13] 101 % of control | [11] 97 % of control | [2] 96 % of control | [14] 98 % of control | [12] 100 % of control | [3] 101 % of control
